# Measurements: article PMC9080521, “Molecular basis of rutin inhibition of protein disulfide isomerase (PDI) by combined in silico and experimental methods” (RSC Advances, 2018)
# Columns and labels:
# murine proteins (mPDI) = murine proteins (mPDI) (Mus musculus, UniProt P09103); assay: Fluorescence-based direct binding assay, murine proteins as a group; details: murine MBP-mPDI proteins, read-out: binding affinities of murine proteins (IC50)
# Protocol: 2. Binding affinity (IC50) of rutin to human or murine MBP-fused PDI proteins The MBP-fused PDI proteins (18 μМ) were incubated with a gradient of 10 rutin’s concentrations differed by 2- or 3-fold and 3 repetitions in 384-well black plate at room temperature for 30 min before measurements. The total assay volume was filled to 100 μL using the assay buffer (pH 7.4) contains 150 mM NaCl, 20 mM Tris, 1 mM EDTA, 1 mM β-ME and 5% glycerin. The fluorescence emission spectrum of the mixture were measured with the excitation at 430 nm and the emission at 530 nm at room temperature on a BioTek Synergy microplate reader with a sensitivity of 100. The data were analyzed by GraphPad Prism (Fig. S3).
# [1] = test system: MBP (MBP-PNGase, MBP-SpoIVB, MBP-MOC1); assay: Fluorescence measurement with MBP-fusion control proteins; type: binding; details: rutin 55 μM, MBP-fusion proteins 18 μM, excitation 430 nm
# Protocol: The relevant recombinant proteins were incubated with rutin in black 384-well plate at room temperature for 30 min before measurements. The concentrations of proteins were always kept at 18 μM and rutin was 55 μM. The total assay volume was filled to 100 μL using the protein buffer (pH 7.4). The fluorescence emission spectrum of every mixture were measured with the excitation at 430 nm and the emission at 460 nm at room temperature on a BioTek Synergy microplate reader with a sensitivity of 100 or 120 and measurements of per data with 100 times. […]
# presence of three different MBP-fusion proteins. The MBP-fusion proteins (MBP-PNGase protein (gray dash-dot line), MBP-SpoIVB protein (gray dash line) and MBP-MOC1 protein […]
# at 430 nm. Addition of rutin (55 μМ) to these proteins (MBP-PNGase in black solid line, MBP-SpoIVB in black dash line and MBP-MOC1 in black dot line) gave the signals almost identical to rutin itself (gray solid), which has a maximum fluorescence at 550 nm.
# (1 picture or pasted object on this page, not shown here)
# MBP-PDI-b′xa′ E359A = target: T1, MBP-PDI-b′xa′ E359A (Homo sapiens, UniProt P07237, E359A); assay: Insulin reduction assay; type: biochemical; details: rutin 100 μM
# T1 construct: MBP-PDI-b′xa′(235–479); His-tag; made in house; host or cells: E. coli BL21 (DE3)
# Protocol: (§1) The insulin reduction assay was performed to assess the enzymatic activity of PDI and its MBP-fused recombinant proteins. PDI can reduce insulin in the presence of dithiothreitol (DTT) along with increase in turbidity of the reaction mixture. We thus monitored spectrophotometrically the aggregation of reduced insulin through the increase of turbidity. The reductase activity was measured in 100 μL in presence of 600 μM insulin, 1.5 μM PDI and recombinant PDI proteins, 1 mM DTT, and with protein buffer (pH 7.4), at room temperature over 100 min by absorption at 650 nm. For inhibition assay, 100 μM of rutin, kaempferitrin, tiliroside and 2′-O-galloylhyperin or control buffer was added to the reaction system.
# (§2) We further used the insulin reduction assay to measure the reductase activities of these site-directed MBP-PDI-b′xa′ mutants. This assay has typically good reproducibility as shown by a control experiment with three repetitions (Fig. S7 ^†). We found the PDI mutants maintained reductase activities in the presence of dithiothreitol (DTT). The H354A mutation lowered the reductase activity of wt MBP-PDI-b′xa′ (Fig. 3G) while other mutants had similar reductase activities with that of wt MBP-PDI-b′xa′ (Fig. 3C, F and H–J). Addition of rutin inhibited the reductase activities of both wt MBP-PDI-b′xa′ and the mutants (Fig. 3C and F–J). […] We quantified the inhibition of rutin on these MBP-PDI-b′xa′ mutants by measuring the increase of turbidity (OD650 at 100 min) upon addition of rutin (Fig. 3K).
# MBP-PDI-b′xa′ E359K = target: T2, MBP-PDI-b′xa′ E359K (Homo sapiens, UniProt P07237, E359K); assay: Insulin reduction assay; type: biochemical; details: rutin 100 μM
# T2 construct: MBP-PDI-b′xa′(235–479); His-tag; made in house; host or cells: E. coli BL21 (DE3)
# Protocol: as §1, §2
# MBP-PDI-b′xa′ H354A = target: T3, MBP-PDI-b′xa′ H354A (Homo sapiens, UniProt P07237, H354A); assay: Insulin reduction assay; type: biochemical; details: rutin 100 μM
# T3 construct: MBP-PDI-b′xa′(235–479); His-tag; made in house; host or cells: E. coli BL21 (DE3)
# Protocol: as §1, §2
# MBP-PDI-b′xa′ K328E = target: T4, MBP-PDI-b′xa′ K328E (Homo sapiens, UniProt P07237, K328E); assay: Insulin reduction assay; type: biochemical; details: rutin 100 μM
# T4 construct: MBP-PDI-b′xa′(235–479); His-tag; made in house; host or cells: E. coli BL21 (DE3)
# Protocol: as §1, §2
# MBP-PDI-b′xa′ L355R = target: T5, MBP-PDI-b′xa′ L355R (Homo sapiens, UniProt P07237, L355R); assay: Insulin reduction assay; type: biochemical; details: rutin 100 μM
# T5 construct: MBP-PDI-b′xa′(235–479); His-tag; made in house; host or cells: E. coli BL21 (DE3)
# Protocol: as §1, §2
# wt MBP-PDI-b′xa′ = target: T6, wt MBP-PDI-b′xa′ (Homo sapiens, UniProt P07237); assay: Insulin reduction assay; type: biochemical
# T6 construct: MBP-PDI-b′xa′(235–479); His-tag; made in house; host or cells: E. coli BL21 (DE3)
# Protocol: as §1, §2
# full-length human PDI = full-length human PDI (Homo sapiens, UniProt P07237); assay: Insulin reduction assay; type: biochemical; details: compound 100 μM, 1.5 μM protein, last read (100 min); PDI alone 1.125
# Protocol: as §1
# murine MBP-mPDI-b′xa′ = target: T7, murine MBP-mPDI-b′xa′ (Mus musculus, UniProt P09103); assay: Insulin reduction assay; type: biochemical; details: rutin 100 μM, last read (100 min); MBP-mPDI-b′xa′ alone 0.832
# T7 construct: MBP-mPDI-b′xa′ (236–477); His-tag; made in house; host or cells: E. coli BL21 (DE3)
# Protocol: as §1
# [2] = test system: platelet aggregation and fibrin generation; details: cited from earlier work
# ERp5 = test system: ERp5; parameters: method as in PMID 22565308; details: cited from earlier work
# [3] = mouse models, dose of 0.5 mg kg^−1
# T5 sequence (P07237 235-479 L355R): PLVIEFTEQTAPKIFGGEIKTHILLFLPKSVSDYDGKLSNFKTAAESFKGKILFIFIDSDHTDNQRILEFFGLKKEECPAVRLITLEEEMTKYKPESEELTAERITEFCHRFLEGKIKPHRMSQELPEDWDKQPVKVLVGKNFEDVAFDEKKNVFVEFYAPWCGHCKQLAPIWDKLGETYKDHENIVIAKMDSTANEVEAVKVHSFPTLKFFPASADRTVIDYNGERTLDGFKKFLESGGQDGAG
# T2 sequence (P07237 235-479 E359K): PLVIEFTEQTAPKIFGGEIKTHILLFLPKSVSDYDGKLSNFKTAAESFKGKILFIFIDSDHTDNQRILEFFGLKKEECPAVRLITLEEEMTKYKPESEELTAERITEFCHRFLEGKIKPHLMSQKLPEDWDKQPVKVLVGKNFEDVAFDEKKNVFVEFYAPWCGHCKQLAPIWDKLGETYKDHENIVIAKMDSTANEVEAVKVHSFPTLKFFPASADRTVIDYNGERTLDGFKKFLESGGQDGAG
# T6 sequence (P07237 235-479): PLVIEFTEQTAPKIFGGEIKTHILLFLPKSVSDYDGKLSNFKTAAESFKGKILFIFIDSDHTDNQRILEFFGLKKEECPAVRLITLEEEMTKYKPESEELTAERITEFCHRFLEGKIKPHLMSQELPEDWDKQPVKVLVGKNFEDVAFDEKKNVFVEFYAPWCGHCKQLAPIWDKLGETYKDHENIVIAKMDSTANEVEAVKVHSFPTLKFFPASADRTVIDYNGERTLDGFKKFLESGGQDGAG
# T1 sequence (P07237 235-479 E359A): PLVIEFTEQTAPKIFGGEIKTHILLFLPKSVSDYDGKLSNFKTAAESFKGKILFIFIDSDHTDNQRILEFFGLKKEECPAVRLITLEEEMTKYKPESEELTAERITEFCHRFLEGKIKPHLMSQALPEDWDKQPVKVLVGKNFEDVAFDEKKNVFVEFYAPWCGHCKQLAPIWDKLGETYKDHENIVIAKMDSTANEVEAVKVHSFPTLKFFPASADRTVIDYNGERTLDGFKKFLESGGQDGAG
# T4 sequence (P07237 235-479 K328E): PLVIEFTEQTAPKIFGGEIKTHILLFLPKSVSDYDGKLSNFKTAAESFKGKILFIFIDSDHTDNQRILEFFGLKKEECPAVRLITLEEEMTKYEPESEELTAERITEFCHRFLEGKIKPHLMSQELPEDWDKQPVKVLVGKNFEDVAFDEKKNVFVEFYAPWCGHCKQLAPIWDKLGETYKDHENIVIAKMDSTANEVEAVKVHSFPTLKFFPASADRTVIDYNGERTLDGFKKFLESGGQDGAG
# T3 sequence (P07237 235-479 H354A): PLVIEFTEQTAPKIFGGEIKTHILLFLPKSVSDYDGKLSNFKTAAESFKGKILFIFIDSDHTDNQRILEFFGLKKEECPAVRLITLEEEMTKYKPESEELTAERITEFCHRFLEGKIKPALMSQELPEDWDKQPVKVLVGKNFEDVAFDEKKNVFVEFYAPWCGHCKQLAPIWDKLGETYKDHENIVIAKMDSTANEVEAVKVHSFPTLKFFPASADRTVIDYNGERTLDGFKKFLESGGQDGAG
# Sequence of murine proteins (mPDI) (P09103 236-369): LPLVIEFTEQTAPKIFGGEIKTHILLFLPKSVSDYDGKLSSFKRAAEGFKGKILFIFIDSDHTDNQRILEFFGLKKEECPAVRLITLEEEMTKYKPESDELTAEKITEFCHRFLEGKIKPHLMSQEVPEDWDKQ
# Sequence of full-length human PDI (P07237 18-508): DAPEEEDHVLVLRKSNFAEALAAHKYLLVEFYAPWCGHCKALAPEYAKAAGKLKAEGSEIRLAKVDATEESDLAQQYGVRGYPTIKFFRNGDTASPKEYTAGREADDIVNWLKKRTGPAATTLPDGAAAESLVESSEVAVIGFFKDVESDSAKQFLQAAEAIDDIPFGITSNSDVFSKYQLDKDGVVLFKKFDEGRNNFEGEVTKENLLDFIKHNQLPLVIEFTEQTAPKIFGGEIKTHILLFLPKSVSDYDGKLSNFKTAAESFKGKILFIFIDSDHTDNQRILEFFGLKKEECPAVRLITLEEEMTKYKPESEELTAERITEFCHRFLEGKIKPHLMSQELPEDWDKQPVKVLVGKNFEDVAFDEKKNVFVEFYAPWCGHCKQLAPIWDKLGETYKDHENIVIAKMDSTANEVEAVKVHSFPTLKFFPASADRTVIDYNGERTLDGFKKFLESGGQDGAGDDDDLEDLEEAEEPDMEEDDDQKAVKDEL
# T7 sequence (P09103 236-477): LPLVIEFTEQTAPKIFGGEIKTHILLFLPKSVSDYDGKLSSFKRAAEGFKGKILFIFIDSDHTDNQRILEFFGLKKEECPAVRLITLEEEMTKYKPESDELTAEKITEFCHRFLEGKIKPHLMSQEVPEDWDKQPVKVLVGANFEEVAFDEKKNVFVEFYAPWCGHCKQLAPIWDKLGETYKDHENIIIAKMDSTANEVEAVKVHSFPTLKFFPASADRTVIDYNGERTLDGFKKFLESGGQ
structure (smiles),measurement,setting,value
C[C@@H]1O[C@@H](OC[C@H]2O[C@@H](Oc3c(-c4ccc(O)c(O)c4)oc4cc(O)cc(O)c4c3=O)[C@H](O)[C@@H](O)[C@@H]2O)[C@H](O)[C@H](O)[C@H]1O [rutin],IC50,murine proteins (mPDI),~30 µM
same,binding to MBP,[1],does not bind
same,inhibition at 100 µM,"MBP-PDI-b′xa′ E359A; increase of turbidity (OD650) at 100 min, E359A, read-out: Inhibitory efficiency (%)",86%
same,"turbidity (OD650), raw kinetic read at 1:40:32","MBP-PDI-b′xa′ E359A; last read (100 min), E359A alone 0.711",0.416
same,inhibition at 100 µM,"MBP-PDI-b′xa′ E359K; increase of turbidity (OD650) at 100 min, E359K, read-out: Inhibitory efficiency (%)",88.8%
same,"turbidity (OD650), raw kinetic read at 1:40:32","MBP-PDI-b′xa′ E359K; last read (100 min), E359K alone 0.698",0.4
same,inhibition at 100 µM,"MBP-PDI-b′xa′ H354A; increase of turbidity (OD650) at 100 min, H354A, read-out: Inhibitory efficiency (%)",82.9%
same,"turbidity (OD650), raw kinetic read at 1:40:32","MBP-PDI-b′xa′ H354A; last read (100 min), H354A alone 0.585",0.35
same,inhibition at 100 µM,"MBP-PDI-b′xa′ K328E; increase of turbidity (OD650) at 100 min, K328E, read-out: Inhibitory efficiency (%)",99%
same,"turbidity (OD650), raw kinetic read at 1:40:32","MBP-PDI-b′xa′ K328E; last read (100 min), K328E alone 0.777",0.4
same,decrease of inhibitory efficiency compared with wt MBP-PDI-b′xa′,MBP-PDI-b′xa′ L355R; L355R,modest decrease
same,inhibition at 100 µM,"MBP-PDI-b′xa′ L355R; increase of turbidity (OD650) at 100 min, L355R, read-out: Inhibitory efficiency (%)",98.4%
same,"turbidity (OD650), raw kinetic read at 1:40:32","MBP-PDI-b′xa′ L355R; last read (100 min), L355R alone 0.819",0.424
same,"turbidity (OD650), raw kinetic read at 1:40:32","wt MBP-PDI-b′xa′; compound 100 μM, 1.5 μM protein, last read (100 min), WT alone 0.829",0.585
same,inhibition at 100 µM,"wt MBP-PDI-b′xa′; rutin 100 μM, increase of turbidity (OD650) at 100 min, wt, read-out: Inhibitory efficiency (%)",100%
same,"turbidity (OD650), raw kinetic read at 1:40:32",full-length human PDI,0.924
same,"turbidity (OD650), raw kinetic read at 1:40:32",murine MBP-mPDI-b′xa′,0.583
same,reversal of inhibitory activities on PDI in vivo,"[2]; mouse model, infusion of PDI b′x fragment",rapidly reversed
same,fibrin generation in vivo,[2]; [3],blocked
same,platelet aggregation in vivo,[2]; [3],blocked
same,inhibition of ERp5,ERp5,did not inhibit
